Here are results for one compound from article PMC7738869, “A novel STAT3 inhibitor W2014-S regresses human non-small cell lung cancer xenografts and sensitizes EGFR-TKI acquired resistance” (Theranostics, 2021).

Assay [1] has as its system A549 cells. Description: Cell viability assay (CCK-8), A549. Format: cell-based. The conditions noted are these: Homo sapiens, A549, 72 h, read-out: IC50 cell proliferation, A549, 72 h. On the procedure: Cell proliferation was measured using the Cell Counting Kit-8 (CCK-8, B34304, Bimake, USA). A549 (2 × 10^3/100 μL/well), PC-9 (3 × 10^3/100 μL/well) or PC-9/GR cells (3 × 10^3/100 μL/well) were plated into each well of 96-well plates (Costar, USA). […] Then, 10 μL of CCK-8 was added to each well, and cells were incubated for 1-4 h until the color of untreated controls turned to orange. The absorbance (A) was measured by a microplate reader (FLUOstar Omega-ACU, USA) at test and reference wavelengths of 450 nm. The percentage of growth was calculated as Cell viability (%) = [A (Compound +) - A (Blank) ] / [A (Compound -) - A (Blank) ] × 100%. Cell viability meant proliferation of cells. Each experiment was done at least in triplicate, and thrice independently.

For assay [2], the system named is PC-9 cells. Description: Colony formation assay, PC-9. Format: cell-based, human. The conditions noted are these: PC-9, as low as 0.3 μM.
In assay [3] the test system is PC-9 cells. Put plainly: Cell apoptosis assay (Annexin V-FITC/PI flow cytometry), PC-9. Format: cell-based, human. The note with it: PC-9, 1.0 μM, 72 h. On the procedure: Briefly, aliquots of 2 × 10^5 cells were seeded into 6-well plates and incubated for 24 h at 37 °C. […] After trypsinization and gently washing cells once with medium, the cells were washed twice with cold PBS. The precipitation was resuspended by 400 μL of 1 × binding buffer, and then resuspended cells were transferred into new 1.5 mL EP tubes. Then 3 μL of Annexin V-FITC and 5 μL of propidium iodide were added to the resuspended cells with further incubation at room temperature for 15 min in the dark. The analysis was done on Guava easyCyte (USA) and FlowJo 7.6 software.
In general terms: A flow cytometer gives signals particle by particle.

On to `C[C@H](Oc1ccc(-c2nc3nc(C4=CCN(C(=O)OC(C)(C)C)CC4)ccc3[nH]2)cc1)c1ccccc1` [W2014-S], for which the IC50 in assay [1] worked out at 890 nM. For the same compound, the colony formation entry in assay [2] is “significantly suppressed the colony formation”. Besides, the apoptosis result in assay [3] was “induced apoptosis”.
